# Experimental data published in patent US11530196B2, “Pyrimidine compound acting on EGFR and ERBB2” (CHINA RESOURCES PHARMACEUTICAL HOLDINGS COMPANY LIMITED, priority 2019, dated 2022).
# Values joined by “and” are separate entries in the source; they are usually repeats but may differ in a detail not shown here. Identical values can stand only once.
# Experiments:
# [1] = biological target: BaF3 ERBB2 A775_G776 ins YVMA (Homo sapiens, UniProt P04626, DUP772-775, cells depend on it); test: Anti-proliferation against Ba/F3 exon 20 insertion mutant cells (ERBB2 YVMA); format: cell-based, mouse; conditions: CTG, 72 hours, read-out: Mutant cells IC50 (anti-proliferation)
# Chain of BaF3 ERBB2 A775_G776 ins YVMA (P04626 with tags, fused parts or gaps DUP772-775): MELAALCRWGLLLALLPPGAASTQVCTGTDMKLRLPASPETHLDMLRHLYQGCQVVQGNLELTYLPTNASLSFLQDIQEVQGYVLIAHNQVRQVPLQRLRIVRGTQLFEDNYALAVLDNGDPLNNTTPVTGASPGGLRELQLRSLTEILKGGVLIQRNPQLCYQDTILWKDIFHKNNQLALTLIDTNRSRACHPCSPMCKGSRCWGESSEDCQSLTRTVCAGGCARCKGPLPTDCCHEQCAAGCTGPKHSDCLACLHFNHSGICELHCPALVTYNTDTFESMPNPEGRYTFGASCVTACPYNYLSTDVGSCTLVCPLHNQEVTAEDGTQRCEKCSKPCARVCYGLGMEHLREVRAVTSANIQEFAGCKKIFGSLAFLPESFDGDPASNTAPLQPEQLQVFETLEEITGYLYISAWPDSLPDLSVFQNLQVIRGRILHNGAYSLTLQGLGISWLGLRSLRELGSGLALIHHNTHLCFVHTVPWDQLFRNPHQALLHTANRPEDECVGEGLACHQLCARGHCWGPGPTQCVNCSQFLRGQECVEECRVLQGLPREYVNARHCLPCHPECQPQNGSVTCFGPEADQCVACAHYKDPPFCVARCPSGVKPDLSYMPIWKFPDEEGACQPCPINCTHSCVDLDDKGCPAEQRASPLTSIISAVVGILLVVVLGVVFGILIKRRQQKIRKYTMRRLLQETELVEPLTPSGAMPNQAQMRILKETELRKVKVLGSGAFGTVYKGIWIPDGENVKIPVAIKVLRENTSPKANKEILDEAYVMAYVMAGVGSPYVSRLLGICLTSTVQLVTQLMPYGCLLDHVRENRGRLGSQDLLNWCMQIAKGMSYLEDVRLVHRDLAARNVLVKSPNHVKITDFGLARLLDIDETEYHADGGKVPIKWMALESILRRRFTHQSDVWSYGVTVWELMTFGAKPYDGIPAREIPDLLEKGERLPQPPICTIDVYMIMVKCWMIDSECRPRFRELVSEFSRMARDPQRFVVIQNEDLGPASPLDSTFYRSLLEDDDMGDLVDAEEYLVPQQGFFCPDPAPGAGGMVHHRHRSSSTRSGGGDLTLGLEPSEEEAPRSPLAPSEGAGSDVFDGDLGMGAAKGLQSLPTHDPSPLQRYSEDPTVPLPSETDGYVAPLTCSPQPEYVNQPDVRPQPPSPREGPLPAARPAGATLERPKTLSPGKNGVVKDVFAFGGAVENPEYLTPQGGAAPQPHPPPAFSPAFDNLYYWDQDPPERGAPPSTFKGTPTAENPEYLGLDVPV
# Source text: RPMI1640 medium was purchased from Hyclone, FBS fetal bovine serum was purchased from GBICO, and trypsin-EDTA were both purchased from Giboco. DPBS was purchased from Corning, penicillin/streptomycin solution was purchased from Hyclone, and Cell-Titer Glo reagent was purchased from Promega (Cat. No. G7572). Ba/F3 EGFR-D770_N771insSVD, Ba/F3 EGFR-H773_V774insNPH, Ba/F3 EGFR-V769_D770insASV, BaF3 ERBB2 A775_G776 ins YVMA, the cell lines were constructed by Beijing Kang Yuan Bochuang Biotechnology Co., Ltd. Plate reading instrument: Envision (PerkinElmer).
# Cells in logarithmic growth phase were harvested and cell counts were performed using a […]. Cell viability was detected by the Taipan Blue rejection assay. The cell concentration was adjusted; the cell suspension was added to a 96-well plate separately. Cells in 96-well plates were incubated overnight at 37° C., 5% CO2, and 95% humidity. […] The cell plate was placed at room temperature to stabilize the cold light signal, and the cold light values were read. The data were analyzed using GraphPad Prism 7.0 software, and a nonlinear S-curve regression was used to fit the data to derive the dose-effect curve from which the IC50 values were calculated. […]
# [2] = Compound stability test in plasma (dog); format: in vitro ADME, Beagle
# Protocol: In this study, mouse, SD rat, Beagle, cynomolgus monkey and human plasma were used as materials to investigate the stability of the tested compounds in the plasma of the above five species. Propantheline, Enalapril, Bisacodyl and Procaine were used as control compounds.
# The experimental conditions for the test compounds were as follows: • test concentration: 2 μM (DMSO ≤0.5%); • incubation times: 0, 10, 30, 60 and 120 minutes; • frozen plasma (from multiple species) was used in the test system; • incubation conditions: 37° C.
# The mixed frozen plasma was thawed in a 37° C. water bath prior to the experiment. Plasma was centrifuged at 4000 rpm for 5 minutes and cleared if there was a clot. The pH will be adjusted to 7.4±0.1 if required.
# The intermediate solution of 1 mM compound and positive control was prepared by diluting 10 mM stock solution with 90 μL of dimethyl sulfoxide. 100 μM solution was prepared by diluting 20 μL of intermediate solution (1 mM) with 180 μL of 45% methanol/water.
# 2 μL of 100 μM solution was added to 98 μL of blank plasma to achieve a final concentration of 2 μM (in duplicate) of the sample, and the sample was incubated in a 37° C. water bath. At each time point (0, 10, 30, 60 and 120 min), 400 μL of termination solution (200 ng/mL toluenesulfonylurea and 200 ng/mL labetalol, 50% ACN/MeOH) was added to precipitate the proteins and mixed thoroughly. […]
# [3] = biological target: EGFR exon 20 insertion (D770_N771insNPG) enzyme (Homo sapiens, UniProt P00533, INS770NPG); test: Kinase assay (HTRF KinEASE TK), EGFR exon 20 insertion; format: biochemical
# Chain of EGFR exon 20 insertion (D770_N771insNPG) enzyme (P00533 with tags, fused parts or gaps INS770NPG limits assumed): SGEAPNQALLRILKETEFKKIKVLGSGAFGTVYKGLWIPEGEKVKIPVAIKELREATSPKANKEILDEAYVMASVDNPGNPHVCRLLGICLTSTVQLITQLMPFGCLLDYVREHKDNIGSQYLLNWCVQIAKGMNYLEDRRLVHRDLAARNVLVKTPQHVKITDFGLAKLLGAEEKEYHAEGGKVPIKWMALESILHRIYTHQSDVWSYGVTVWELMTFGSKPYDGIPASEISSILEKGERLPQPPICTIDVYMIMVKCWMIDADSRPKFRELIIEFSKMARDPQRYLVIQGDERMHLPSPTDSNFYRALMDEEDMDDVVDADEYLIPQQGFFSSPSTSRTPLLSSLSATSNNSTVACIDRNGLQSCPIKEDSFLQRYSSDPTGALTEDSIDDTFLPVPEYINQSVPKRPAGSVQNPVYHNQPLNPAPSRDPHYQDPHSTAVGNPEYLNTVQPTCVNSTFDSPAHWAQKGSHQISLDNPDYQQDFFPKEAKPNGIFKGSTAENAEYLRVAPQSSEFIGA
# Source text: To detect the inhibitory effect of compounds on EGFR WT, EGFR (D770_N771insNPG), ERBB2 (V777_G778ins>CG), EGFR T790M/L858R enzyme activities
# EGFR WT (Invitrogen, Cat. No. PR7295B), EGFR [L858R] (Invitrogen, Cat. No. PR7447A), EGFR [d746-750] (Invitrogen, Cat. No. PV6179), ATP (Sigma, Cat. No. A7699-1G), DMSO (Sigma, Cat. No. D2650), DTT (Sigma, Cat. No. 43815), 384-well plate, compound dilution plate (Greiner, Cat. No. 781280), 384-well plate, test plate (Perkin Elmer, Cat. No. 6007299), HTRF KinEASE TK Kit (Cisbio, Cat. No. 62TK0PEB), magnesium chloride (Sigma, Cat. No. M1028), Orthovanadate (Sigma, Cat. No. 56508), BSA (Sigma, Cat. No. A7030), HEPES (Life technology, Cat. No. 11344-041).
# The final test concentrations of the test compounds ranged from 10 μM to 0.17 nM in 3-fold gradient dilutions at 11 concentrations.
# The preparation of the buffer, 50 mM HEPES (pH 7.5), 0.01% BSA, 5 mM MgCl2, and 0.1 mM Orthovanadate were contained in the buffer. After the preparation of the buffer, the enzyme and substrate were mixed with pre-diluted prepared compounds of different concentrations, and the mixture was placed at room temperature for 15 minutes. […] After the reaction was completed, the antibody was added to the assay, incubated at room temperature for 60 minutes and then detected by Envision (plate reading instrument), and data were collected. […]
structure (smiles),measurement,setting,value
C=CC(=O)Nc1cc(Nc2ncc(C(=O)OC(C)C)c(-c3cn(OC)c4ccccc34)n2)c(OC)cc1N(C)CCN(C)C.CS(=O)(=O)O [Compound 1],GI50,[1],37 nM
same,In vitro plasma stability (Residual percentage),"[2]; 120 minutes, 2 μM, 37° C.",101.7%
same,half-life at 2 µM,"[2]; beagle, pH 7.4, 37° C., read-out: In vitro plasma half-life T1/2",> 4.82 h
same,IC50,[3],0.8 nM and 0.7 nM
